{"source": "patent US12441803B2", "about": "“Engineered CD25 polypeptides and uses thereof” (iBio, Inc., priority 2018, dated 2025)", "tested_on": "alanine mutant versions of CD25", "assay": "Alanine mutagenesis functional epitope mapping", "settings": "binding responses to alanine mutant versions of CD25", "experimental": "Alanine mutagenesis was selected as an orthogonal method for binning antibodies because it operates on the functional epitope, rather than the structural epitope defined by competition assays. Various pairs of surface-accessible residues were selected for mutagenesis.\nEach of 117 scFv's from the screening campaign were tested against four alanine mutations pairs (FIG. 31)."}
{"substance": "basiliximab", "values": [{"measurement": "Ala-mutant epitope mapping of control antibody", "value": "Ala mutant binding responses corroborate crystal structure of the basiliximab epitope"}]}
